Values quoted from earlier work in patent US4177199A, “Silver salts of phosphanilic acid” (Bristol-Myers Company, priority 1978, dated 1979).

Columns and labels:
Ps. fluorescens = conditions: mice infected with Ps. fluorescens
[1] = laboratory animals
S. typhosa = conditions: mice infected with S. typhosa
[2] = laboratory animals; remark: listed apart in the source
[3] = by admixture or salt formation
[4] = system: experimental tuberculosis
Histoplasma capsulatum = conditions: mouse, in vivo, iv
[5] = system: a variety of bacterial species
Plasmodium berghei = conditions: mice infected with Plasmodium berghei

Nc1ccc(P(=O)(O)O)cc1 [phosphanilic acid]
efficacy in vivo in infected mice (Ps. fluorescens): effective
toxicity [1]: low
efficacy in vivo in infected mice (S. typhosa): effective
absorption [2]: poor
potentiation of various tetracycline antibiotics [3]: potentiation
effect in vivo against experimental tuberculosis [4]: no effect
protective effect against Histoplasma capsulatum infection (Histoplasma capsulatum): some protective effect
in vitro activity among compounds tested ([5]; aromatic phosphonic and phosphinic acids): generally the most active of the compounds tested
activity compared with sulfathiazole ([5]; molar basis): approached that of sulfathiazole
tubercularstatic activity in vitro (tuberculosis): good
efficacy in vivo in infected mice (Plasmodium berghei): effective
